Measurements from US8710246B2, “Substituted thiophene pentamers” (Biochromix Newco AB, priority 2008, dated 2014).
“Also recorded” adds a separate entry of the source.

Columns and labels:
Aβ deposits = experiment: Long term in vivo effects on amyloid plaques in transgenic mice, cranial window, multiphoton spectroscopy; conditions: tail vein injection, 10 mg/kg
Text: This long lasting binding to the plaques is advantageous for a long term therapeutic effect of the inventive compounds.

[1] = system: Human Aβ38, Aβ40 and Aβ42; experiment: 30 days treatment, human Aβ determinations in CSF and brain homogenate SDS fraction (Mesoscale immunosorbent assay); type: in vivo, mice
Protocol: (§1) Starting at 8 months of age, female hAPPSL mice were treated with vehicle only or p-FTAA in 3 dosages for 30 days. The Test Item (T.I.) p-FTAA was administered in 3 dosages in Vehicle. 48 hAPP Tg mice plus 4 reserves allocated to 4 different treatment groups were treated with either vehicle only (control) or with p-FTAA in dosages of 0.1 mg/kg/day, 1 mg/kg/day, or 10 mg/kg/day. As an additional control, 12 nTg littermates of the hAPPSL mice (plus 1 reserve) were treated with vehicle only. Vehicle and T.I.s were administered twice daily intra peritoneal (i.p.) for 30 days.
Human Aβ38, Aβ40 and Aβ42 were determined in homogenates of the left brain hemispheres and in CSF samples of all Tg animals by an immunosorbent assay from Mesoscale Discovery
48 hAPP Tg mice plus 4 reserves allocated to 4 different treatment groups were treated with either vehicle only (control) or p-FTAA. As an additional control, 12 nTg littermates of the hAPPSL mice (plus 1 reserve) were treated with vehicle only. Tg hAPPSL mice with a C57BL/6xDBA background and corresponding nTg littermates at an age of 8 months (±2 weeks) were randomly assigned to the treatment groups.
Left hemi-brain samples (without cerebellum) of Tg animals were homogenized and separated. SDS fraction was prepared, after thawing, hemispheres were homogenized with the Homogenizer “Ultra Turrax T8” at highest speed in TBS (20 mM Tris, 137 mM NaCl, pH=7.6; containing protease inhibitor cocktail; 100 mg brain wet weight per ml TBS). One aliquot (1 ml) was centrifuged (74,200×g for 1 h at 4° C.). The pellets were suspended in 1 ml SDS (2% SDS in Aqua bidest), centrifuged as above and the supernatants were kept at −20° C. (SDS fraction).
In the brain homogenate SDS fraction and in CSF of each Tg mouse, human Aβ38, Aβ40 and Aβ42 levels were measured with a Aβ-kit from Mesoscale Discovery. Aβ levels were evaluated in comparison to a peptide standard as pg/mg brain (wet weight) or pg/ml CSF.
Descriptive statistical analysis was performed on all evaluated parameters. Data were represented as mean±standard deviation (SD). Grubb's test was used to detect outliers. Normality distribution of the values was tested with Kolmogorov Smirnov normality distribution test. Group differences between all Tg groups were calculated by a parametric ANOVA followed by a Bonferroni post test.

amyloid plaques = experiment: 30 days treatment, plaque load by 6E10 IHC and ThioflavinS staining; type: in vivo, mice; conditions: for hippocampal plaque load compared to vehicle: t-test
Protocol: as §1
Following blood sampling, mice were transcardially perfused with physiological (0.9%) saline. The brains were removed from the skull and the cerebellum was cut off, immediately frozen on dry ice and stored at −80° C. The remaining brain was hemisected and the left hemisphere was weighed, immediately frozen on dry ice and stored at −80° C. until A13 analysis. The right hemisphere was fixed with paraformaldehyde as described in section 4.3.1.
The right hemispheres of all Tg mice were fixed by immersion in freshly prepared 4% paraformaldehyde/PBS (pH 7.4) for one hour at room temperature. Thereafter brains were transferred to a 15% sucrose PBS solution for 24 hours to ensure cryoprotection. On the next day, brains were frozen in isopentane and stored at −80° C. until used for histological analysis.
From 6 animals per Tg group, 15 cryo-sections per layer (altogether 5 layers), each 10 μm thick (Leica CM 3050S) were sagittally cut. Brain levels were chosen according to the morphology atlas “The Mouse Brain” from Paxinos and Franklin (2nd edition). The cutting of the five levels started with a random slice corresponding to FIG. 105 (total appearance of the dentate gyrus), then sampling was continued uniformly and systematically, always retaining 15 slices per level in series and discarding 100 μm in between the levels.
Plaque load was quantified by staining with 6E10 IHC directed against AA1-17 of the human amyloid peptide and ThioflavinS staining against beta-sheet structures in a double incubation. Tissues of all investigated animals were handled uniformly.
Descriptive statistical analysis was performed on all evaluated parameters. Data were represented as mean±standard error of mean (SEM). Outliers were detected by Grubbs' test and were excluded from statistical analyses.
Values of the five single measurements (one from each cut level) per animal were integrated to one value per animal (individual mean). Group means were calculated with these integrated values. After Kolmogorov Smirnov normality distribution tests differences were calculated by a parametric ANOVA followed by a Newman Keuls multiple comparison post-hoc test or by a non-parametric Kruskal Wallis ANOVA followed by a Dunn's Multiple comparison test, if Gaussian distribution was missing.

O=C(O)Cc1cc(-c2ccc(C(=O)O)s2)sc1-c1ccc(-c2sc(-c3ccc(C(=O)O)s3)cc2CC(=O)O)s1 [Compound F]
binding to Aβ deposits in living mouse brain one week after injection (Aβ deposits; one week after injection): binding of the inventive compounds to AP deposits could still be observed; also recorded: bound to Aβ deposits in living mouse brain one week after injection
crossing of the blood brain barrier after intravenous injection (Aβ deposits; transgenic mice with AD-like pathology): readily cross the blood brain barrier
Aβ38, Aβ40 and Aβ42 levels in CSF compared to vehicle ([1]; 0.1 mg/kg/day ip for 30 days): lower mean Aβ levels but statistical significance was observed for Aβ38 only
Aβ38, Aβ40 and Aβ42 levels in CSF compared to vehicle ([1]; 1 mg/kg/day ip for 30 days): did not differ significantly from the vehicle control
Aβ38, Aβ40 and Aβ42 levels in CSF compared to vehicle ([1]; 10 mg/kg/day ip for 30 days, 8 months old female hAPPSL mice, listed as p-FTAA): significantly decreased; also recorded: highly significant
Aβ38, Aβ40 and Aβ42 levels in SDS brain homogenate fraction compared to vehicle ([1]; 10 mg/kg/day ip for 30 days, listed as p-FTAA): significantly decreased
decrease in plaque area (amyloid plaques; 1 mg/kg, hippocampus): 40%
hippocampal plaque load compared to vehicle (amyloid plaques; 1 mg/kg/day, ThioflavinS, listed as p-FTAA): Statistical significance; also recorded: significantly lower plaque load
hippocampal plaque load compared to vehicle (amyloid plaques; 10 mg/kg/day, ThioflavinS, listed as p-FTAA): Statistical significance; also recorded: significantly lower plaque load
plaque load in the cortex (amyloid plaques; 0.1, 1, 10 mg/kg/day, ThioflavinS, listed as p-FTAA): without significant changes; also recorded: comparable among groups
reduction of diffuse 6E10 IR surrounding the plaque-cores, dose of strongest effect (amyloid plaques; 6E10 IHC): strongest for the 10 mg/kg p-FTAA treatment
effect on beta-sheet cores, dose of strongest effect (amyloid plaques; ThioflavinS): strongest effect on beta-sheet cores was observed for the 1 mg/kg p-FTAA treatment
plaque load, overall effect of treatment (amyloid plaques; mainly hippocampus, 6E10 IHC and ThioflavinS): reduction of plaque load
